# In article PMC10813319 (Biomedicines, 2024):
# Like-named read-outs stand apart in the source and are kept apart here. Square brackets hold non-standard residues; d marks the D form. Peptide text beside a SMILES is read from it.
# Legend:
# [1] = tested on: Aβd/t-induced cofilactin rods in Day 55 human iPSC-derived glutamatergic neurons; experiment: cells; details: Neuron, read-out: EC50 for inhibition of Aβd/t-induced rods, human neurons
# Description: (§1) The predominantly dimer/trimer fraction of a secreted human amyloid-β (Aβd/t) was derived from a Chinese hamster ovary-cell line (7PA2) [62]. Medium from these cells collected after overnight incubation was concentrated 10-fold on Amicon Ultra 15 mL, 3K cut-off spin filters (Sigma-Aldrich), and the concentrate fractionated on a Superdex-75 Increase (Sigma-Aldrich) gel filtration column equilibrated in 50 mM ammonium acetate buffer [20, 24]. The fractions containing Aβd/t were identified by Western blots using an Aβ antibody (6E10; 1:1000) (Covance, Princeton, NJ, USA). Fractions were freeze-dried, resolubilized in 1 mL of sterile water, and freeze-dried a second time for storage. The Aβd/t fraction was reconstituted to 1X (concentration in 7PA2 culture medium, assuming full recovery of the dimer/trimer fraction) in neuronal culture medium prior to addition to neuronal cultures. Quantification of the total Aβd/t pool was determined to be about 1 nM (monomer equivalent) by comparison on immunoblots to a standard curve using synthetic Aβ [20].
# (§2) Human neurons were derived from iPSC WTC-11 cells, in which a doxycycline-regulated promoter drives the expression of the Ngn2 transcription factor for glutamatergic neuronal differentiation [67, 68]. […] Differentiated neurons were plated at 60,000 per well and cultured for 55 days in glial-conditioned complete homemade neurobasal medium (hNB) either on poly-D-lysine/Matrigel (Corning Life Sciences, Tewksbury, MA, USA) coated glass bottom 24-well plates (Cellvis, Mountain View, CA, USA) or on similarly coated 12 mm German glass coverslips placed in plastic 24-well plates.
# (§3) Cultured neurons were exposed to inhibitors and/or Aβd/t for 20–24 h prior to fixation for 30 min with 4% formaldehyde ± 0.1% glutaraldehyde in cytoskeletal buffer [72], washed 3 times with PBS, and permeabilized with −20 °C methanol (3 min while warming to RT). Methanol permeabilization without the use of non-ionic detergents is critical for optimal observation of rods [13]. After removing the methanol, neurons were washed twice in PBS, twice in Tris Buffered Saline (TBS: 10 mM Tris, pH 7.5, 150 mM NaCl), and incubated for 1 h at RT with blocking buffer (2–5% goat or donkey serum, 1% bovine serum albumin (BSA) in TBS). Primary antibodies (rabbit 1439 anti-cofilin, mouse anti-neurofilament, and chicken anti-MAP2) were diluted in 1% BSA in TBS and incubated overnight on cells at 4 °C. After 3–5 washes with TBS, secondary fluorescent-labeled antibodies (goat anti-rabbit Alexa 488 or 647, goat anti-mouse Alexa 564, or goat anti-chicken Alexa 488 or 564) ± DAPI (1:500 of 1 mg/mL) were added for 1 h at RT in 1% BSA/TBS. After 3–5 TBS washes, coverslips were mounted onto glass slides with Prolong Diamond Antifade ± DAPI (Thermo-Fisher) and air dried overnight in the dark.
# (§4) Stitched images of fixed neurons immunolabeled for cofilin and nuclei (DAPI), as well as either NF-H or MAP2, were exported as tiff files to Metamorph (version 7.8, Molecular Devices, San Jose, CA, USA) or ImageJ (Version 1.53e; Java 1.8.0_172; ImageJ.org). In some cases, macro functions were applied to set local thresholds and shape/size segmentation for cofilin rods.
# [2] = tested on: pre-formed Aβd/t-induced cofilactin rods in Day 55 human neurons; details: AMD3100 30 nM for 24 h in the continued presence of Aβd/t; cited from earlier work
# [3] = tested on: pre-formed Aβd/t-induced cofilin-mRFP rods in E18 rat neurons
# [4] = tested on: Aβd/t-induced cofilactin rods in Day 55 human iPSC-derived glutamatergic neurons
# Description: as §1, §2, §3, §4
# [5] = tested on: pre-formed Aβd/t-induced cofilactin rods in Day 55 human neurons
# [6] = tested on: dual tropic gp120MN-induced cofilactin rods in Day 55 human neurons
# [7] = tested on: IL-6-induced cofilactin rods in Day 55 human neurons
# [8] = tested on: glutamate-induced cofilactin rods in 6 DIV rat hippocampal neurons
# [9] = tested on: Aβd/t-induced cofilactin rods in 6 DIV rat hippocampal neurons
# [10] = read-out: Human Neuron EC50, inhibition of Aβd/t-induced rods, Day 55 human neurons treated 24 h with Aβd/t plus peptide, Table 1
compound,measurement,setting,value
c1cc(CN2CCCNCCNCCCNCC2)ccc1CN1CCCNCCNCCCNCC1 [AMD3100],EC50,[1],2 to 3 nM
same,Reversal of Aβd/t-induced rods in human neurons,[2],reversed
same,Reversal of rods induced by and in the continued presence of Aβd/t,"[3]; AMD3100 50 nM, RAP-103 0.1 nM, live imaging over 2.5 h, n = 3",reversed rods
C[C@H](O)[C@@H](NC(=O)[C@@H](CO)NC(=O)[C@H](N)CO)C(=O)N[C@H](Cc1ccc(O)cc1)C(=O)N[C@H](CCCNC(=N)N)C(=O)O [Peptide 2] (H-[dS][dS][dT][dY][dR]-OH; N-terminus and C-terminus assumed),EC50,[4]; [10],~1 nM
C[C@H](O)[C@@H](NC(=O)[C@@H](Cc1ccc(O)cc1)NC(=O)[C@@H](CC(N)=O)NC(=O)[C@H](NC(=O)[C@H](N)CO)[C@H](C)O)C(=O)O [Peptide 3] (H-[dS][dT][dN][dY][dT]-OH),EC50,[4]; [10],~1.5 nM
CN[C@@H](C(=O)N[C@@H](C(=O)N[C@H](CC(N)=O)C(=O)N[C@H](Cc1ccc(O)cc1)C(=O)N[C@@H](C(=O)O)[C@H](C)O)[C@H](C)O)[C@H](C)O [Peptide 6],EC50,[4]; [10],> 1 nM
C[C@H](O)[C@@H](N)C(=O)N[C@@H](C(=O)N[C@H](CC(N)=O)C(=O)N[C@H](Cc1ccc(O)cc1)C(=O)N[C@@H](C(=O)O)[C@H](C)O)[C@H](C)O [RAP-103],Time to 50% rod reversal in human neurons,[5],~ 3 h
same,Inhibition of gp120MN-induced rod formation,[6],completely inhibited
same,EC50,[7],~0.0001 nM
same,Adjusted time of 50% loss of rod area,[3],about 200 min
same,Extrapolated time to 50% decrease in rod size,[3],~ 3 h
same,Rate of rod reversal relative to AMD3100,[3],2 fold
same,Reversal of rods induced by and in the continued presence of Aβd/t,[3],reversed rods
C[C@H](O)[C@@H](NC(=O)[C@@H](Cc1ccc(O)cc1)NC(=O)[C@@H](CC(N)=O)NC(=O)[C@H](NC(=O)[C@H](NC(=O)[C@H](NC(=O)[C@@H](CO)NC(=O)[C@@H](C)N)[C@H](C)O)[C@H](C)O)[C@H](C)O)C(N)=O [RAP-310],Inhibition of glutamate-induced rods,[8],did not inhibit
same,"Inhibition of Aβd/t-induced rods, rat neurons",[9],fully inhibited
Maraviroc [reference compound],EC50,"[4]; read-out: EC50 for inhibition of Aβd/t-induced rods, human neurons, Day 55 human iPSC-derived neurons, <1 nM to 100 nM, approximate, estimated from semi-log plots (Figure S2C,D), n = 2",8 to 9 nM
